B1: 8762NT: human rDNA-derived DNA oligonucleotide CGGAGGGCGCGCGGGTCGGGGCGGCGGCGGCGGCGGCGGTGGCGGCGGCGGCGGGGGCGGCGGG (nucleic acid)
DNA: CGGAGGGCGCGCGGGTCGGGGCGGCGGCGGCGGCGGCGGTGGCGGCGGCGGCGGGGGCGGCGGG
modifications: chemistry not given here

Target: T1, recombinant nucleolin (Homo sapiens, UniProt P19338)
T1 construct: without the N-terminal acidic stretches domain
Assay: Nucleolin/nucleic acid ligand interaction, gel retardation assay
Format: binding
Design: key: A “+” represents the weakest nucleolin affinity; a “++++” represents the strongest nucleolin affinity
Settings: relative affinity of each nucleic acid ligand for nucleolin; nucleolin ~250 nM, 32P-labeled ligand 10 or 250 nM, 30 minutes at room temperature
Experimental: The following assays can be used to assess the effects of compounds on interactions between nucleolin and nucleic acid ligands capable of forming quadruplex (QP) and hairpin (HP) secondary structures. Nucleic acid ligands tested were a cMyc QP DNA having nucleotide sequence 5′-[…]-3′ and a HP pre-rRNA region to which nucleolin binds, having the sequence 5′-[…]-3′. In the assays, recombinant nucleolin (˜250 nM), which has been fused to maltose binding protein, and has the sequence under accession number NM_005381 without the N-terminal acidic stretches domain, is incubated with each of the two ^32P-labeled nucleic acid ligands (10 or 250 nM). Nucleolin and the nucleic acid ligand are incubated in the presence or absence of a test compound 7 in an incubation buffer (12.5 mM Tris, pH 7.6, 60 mM KCl, 1 mM MgCl2, 0.1 mM EDTA, 1 mM DTT, 5% glycerol, 0.1 mg/ml BSA) for 30 minutes at room temperature.
The resulting complexes are separated on a 6% DNA retardation gel using 0.5× TBE with 20 mM KCl as a running buffer. The assay also can be conducted using nucleic acid ligands derived from human ribosomal DNA, whereby one can identify a compound that selectively modulates formation of a nucleolin/nucleic acid complex that depends on the conformation of the nucleic acid. Sequences of suitable nucleic acids are shown in the preceding example. […] A “+” represents the weakest nucleolin affinity and a “++++” represents the strongest nucleolin affinity. […] Using nucleic acids such as these having known conformational properties, one can identify a compound such as the compounds described herein that selectively interferes with binding of nucleolin to a particular quadruplex structure.

T1 sequence (P19338 284-710 limits assumed): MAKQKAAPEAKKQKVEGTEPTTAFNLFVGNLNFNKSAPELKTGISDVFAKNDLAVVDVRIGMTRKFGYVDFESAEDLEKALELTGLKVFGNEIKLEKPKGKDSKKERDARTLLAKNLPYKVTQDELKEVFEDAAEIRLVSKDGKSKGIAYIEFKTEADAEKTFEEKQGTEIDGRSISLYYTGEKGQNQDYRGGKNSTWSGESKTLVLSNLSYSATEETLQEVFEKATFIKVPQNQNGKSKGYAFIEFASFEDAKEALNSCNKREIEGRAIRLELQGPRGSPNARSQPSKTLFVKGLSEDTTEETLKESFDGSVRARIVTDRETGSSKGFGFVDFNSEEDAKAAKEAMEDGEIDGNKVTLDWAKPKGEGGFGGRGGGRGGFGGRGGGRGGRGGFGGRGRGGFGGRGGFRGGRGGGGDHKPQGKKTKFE

Row | Molecule | Affinity for Nucleolin
1 | 6183NT: human rDNA-derived DNA oligonucleotide GGGTCGGGGGCGGTGGTGGGCCCGCGGGGG (chemistry not given here) [Compound 6183NT] | +
2 | 7733T: human rDNA-derived DNA oligonucleotide GGGAGGGGCACGGGCCGGGGGCGGGACGGG (chemistry not given here) [Compound 7733T] | +
3 | 8511NT: human rDNA-derived DNA oligonucleotide GGGGGTGGGCGGGCGGGGCCGGGGGTGGG (chemistry not given here) [Compound 8511NT] | ++++
4 | 8749NT: human rDNA-derived DNA oligonucleotide GGGAGGGCGCGCGGGTCGGGG (chemistry not given here) [Compound 8749NT] | +
5 | 11028NT: human rDNA-derived DNA oligonucleotide GGGGCGCGGCGGGGGGAGAAGGGTCGGGGCGGCAGGGG (chemistry not given here) [Compound 11028NT] | +
6 | B1 | ++++

Reference: patent US20100305136A1, “QUINOLONE ANALOGS DERIVATIZED WITH SULFONIC ACID, SULFONATE OR SULFONAMIDE” (priority 2006, published 2010)
